Experimental data from patent publication EP2060268A1, “Pharmaceutical compositions for pulmonary or nasal delivery of peptides” (NOVO NORDISK A/S, priority 2007, dated 2009).
Ends that are not written are not given here.

How the values were obtained:
[1] = Enhancement of peptide absorption in the lung by absorption enhancers (animal model); assay type: in vivo; settings: tested as absorption enhancer, pulmonary route
[2] = treated test animals; e.g. provoking marked hyperlactemia followed by hyperglycemia; cited from earlier work
[3] = Pharmacokinetics after intra-tracheal dry powder delivery to anaesthetised pigs; assay type: in vivo; settings: pig, inhaled or intranasal, pramlintide/insulin aspart powder delivered intra-tracheally, plasma
Protocol: For pulmonary delivery the PennCentury™ DP-4 dry powder insufflator (Penn-Century Inc) modified for pigs was used in combination with the PennCentury™ adjustable air pump, model AP-1 (Penn-Century Inc). The powder is weighed into the sample chamber of the device and manually emitted from the device by using the AP-1 adjustable pump.
The pigs were fasted for approximately 18 h before the experiment. Anaesthesia was induced by injecting Domitor IV (1 mg/mL, 0.4 mL/pig), followed by slow IV infusion of Propofol (10 mg/ml) until the sufficient depth of anaesthesia was obtained, approximately 10-15 mL/pig in total. Atropin (1 mg/ml, 0.5 mL/pig) was injected i.m. to stabilize cardiac parameters and to decrease bronchial secretions. After anaesthesia (and) the pigs were intubated with an endotracheal tube size 8.0 mm. Via an L-piece and the endotraceal tube the pigs were connected to a respirator, with respiration frequency set to 10/min and tidal volume to 300 mL/breath to mimic deep inhalations in humans. […]
Insulin aspart was analyzed using an in-house LOCI sandwich immunoassay with two different antibodies. […] Pramlintide was analyzed using a commercially available human amylin ELISA kit modified for porcine samples (Linco Research, cat. no. EZHA-52K). […]

[4] = cited from earlier work
[5] = when compared to human amylin; cited from earlier work

Row | Compound | enhancement of peptide absorption in the lung [1] | amylin activity in vivo [2] | other results
1 | C[C@H](CCC(=O)NCC(=O)O)[C@H]1CC[C@H]2[C@@H]3[C@H](O)C[C@@H]4C[C@H](O)CC[C@]4(C)[C@H]3C[C@H](O)[C@]12C [glycocholate] | effectively enhance peptide absorption in the lung |  | 
2 | des-^1Lys-h-amylin (CNTATCATQRLANFLVHSSNNFGAILSSTNVGSNTY; ends and bridges not checked; cysteine pairing not given here; UniProt P10997 35-70, looked up, fragment) |  | show amylin activity in vivo | 
3 | C[C@H](CCC(=O)O)[C@H]1CC[C@H]2[C@@H]3[C@@H](O)C[C@@H]4C[C@H](O)CC[C@]4(C)[C@H]3CC[C@]12C [ursodeoxycholate] | effectively enhance peptide absorption in the lung |  | 
4 | CC(=O)OC1CC2(C)C(CC(O)C3C4(C)CCC(O)C(C)C4CCC32C)C1=C(CCCC(C)C)C(=O)NCCS(=O)(=O)O (stereo not drawn) [taurodihydrofusidate] | effectively enhance peptide absorption in the lung |  | 
5 | Dimethyl-β-cyclodextrin | absorption enhancing effect |  | 
6 | lysophospatidylcholine | effective enhancer |  | 
7 | des-^1Lys^18Arg^25, 28Pro-h-amylin |  | show amylin activity in vivo | 
8 | CC[C@H](C)[C@H](NC(=O)[C@@H]1CCCN1C(=O)CNC(=O)[C@H](Cc1ccccc1)NC(=O)[C@H](CC(N)=O)NC(=O)[C@H](CC(N)=O)NC(=O)[C@H](CO)NC(=O)[C@H](CO)NC(=O)[C@H](Cc1c[nH]cn1)NC(=O)[C@@H](NC(=O)[C@H](CC(C)C)NC(=O)[C@H](Cc1ccccc1)NC(=O)[C@H](CC(N)=O)NC(=O)[C@H](C)NC(=O)[C@H](CC(C)C)NC(=O)[C@H](CCCNC(=N)N)NC(=O)[C@H](CCC(N)=O)NC(=O)[C@@H](NC(=O)[C@H](C)NC(=O)[C@@H]1CSSC[C@H](NC(=O)[C@@H](N)CCCCN)C(=O)N[C@@H](CC(N)=O)C(=O)N[C@@H]([C@@H](C)O)C(=O)N[C@@H](C)C(=O)N[C@@H]([C@@H](C)O)C(=O)N1)[C@@H](C)O)C(C)C)C(=O)N[C@@H](CC(C)C)C(=O)N1CCC[C@H]1C(=O)N1CCC[C@H]1C(=O)N[C@H](C(=O)N[C@@H](CC(N)=O)C(=O)N[C@H](C(=O)NCC(=O)N[C@@H](CO)C(=O)N[C@@H](CC(N)=O)C(=O)N[C@H](C(=O)N[C@@H](Cc1ccc(O)cc1)C(N)=O)[C@@H](C)O)C(C)C)[C@@H](C)O [Symlin, ^25,28,29Pro-h-amylin] |  |  | Tmax [3]: 40 min; time to reach Cmax ([4]; after a subcutaneous injection): approximately 20 minutes; plasma t½ ([4]; subcutaneous injection): approximately 20 minutes; solubility and stability characteristics [5]: more desirable solubility and stability characteristics
9 | ^18Arg^25, 28Pro-h-amylin |  | show amylin activity in vivo | solubility and stability characteristics [5]: more desirable solubility and stability characteristics
10 | ^28Pro-h-amylin (KCNTATCATQRLANFLVHSSNNFGAILPSTNVGSNTY; ends and bridges not checked; cysteine pairing not given here; UniProt P10997 34-70, looked up, variant S28P) |  | show amylin activity in vivo | 
11 | ^25Pro^26Val^28, 29Pro-h-amylin |  |  | solubility and stability characteristics [5]: more desirable solubility and stability characteristics
